# Laboratory results from ChEMBL document CHEMBL3885881, “DrugMatrix”.
# Species: Rattus norvegicus
# Test: DrugMatrix - Regimen: Daily Repeat
# Format: toxicity, organism-based, Sprague-Dawley
# Parameters: regimen Daily Repeat, gender Male, age 6-8 weeks
# Settings: in vivo, 0 mg/kg, dose level Control; for ABSOLUTE BASOPHIL / ABSOLUTE EOSINOPHIL / ABSOLUTE LYMPHOCYTE / ABSOLUTE MONOCYTE / ABSOLUTE SEGMENTED NEUTROPHIL / BASOPHIL / EOSINOPHIL / ERYTHROCYTE COUNT / HEMATOCRIT / HEMOGLOBIN / LEUKOCYTE COUNT / LYMPHOCYTE / MEAN CORPUSCULAR HEMOGLOBIN / MEAN CORPUSCULAR VOLUME / MONOCYTE / NEUTROPHIL / NUCLEATED RED BLOOD CELLS / PLATELET COUNT: tissue Blood; for ALANINE AMINOTRANSFERASE / ALBUMIN / ALKALINE PHOSPHATASE / ASPARTATE AMINOTRANSFERASE / BLOOD UREA NITROGEN / CARBON DIOXIDE / CHLORIDE / CHOLESTEROL / CREATINE PHOSPHOKINASE / CREATININE / GLUCOSE / LACTATE DEHYDROGENASE / LIPASE / PHOSPHORUS / POTASSIUM / SODIUM / TOTAL BILIRUBIN / TOTAL PROTEIN / URIC ACID: tissue Plasma
# [1] = po, 72 h, route oral GAVAGE, time 3 day, vehicle 100 % WATER
# [2] = po, 120 h, route oral GAVAGE, time 5 day, vehicle 100 % WATER
# [3] = sc, 72 h, route subcutaneous, time 3 day, […]
# [4] = sc, 120 h, route subcutaneous, time 5 day, […]
structure (smiles),measurement,setting,value
CC(C)(C)CC(C)(C)c1ccc(OCCOCC[N+](C)(C)Cc2ccccc2)cc1.[Cl-] [BENZETHONIUM CHLORIDE],ABSOLUTE BASOPHIL,[1],0 CELLS/uL
same,ABSOLUTE EOSINOPHIL,[1],20.17 CELLS/uL
same,ABSOLUTE LYMPHOCYTE,[1],12371.67 CELLS/uL
same,ABSOLUTE MONOCYTE,[1],166 CELLS/uL
same,ABSOLUTE SEGMENTED NEUTROPHIL,[1],1292.17 CELLS/uL
same,BASOPHIL,[1],0%
same,EOSINOPHIL,[1],0.17%
same,ERYTHROCYTE COUNT,[1],5.46 x10E6/uL
same,HEMATOCRIT,[1],34.38%
same,HEMOGLOBIN,[1],13.32 G/DL
same,LEUKOCYTE COUNT,[1],13.85 x10E3/uL
same,LYMPHOCYTE,[1],88.5%
same,MEAN CORPUSCULAR HEMOGLOBIN,[1],24.42 pg
same,MEAN CORPUSCULAR VOLUME,[1],63.07 fL
same,MONOCYTE,[1],1.17%
same,NEUTROPHIL,[1],10.17%
same,NUCLEATED RED BLOOD CELLS,[1],0.17 /100WBC
same,PLATELET COUNT,[1],1193.5 x10E3/uL
same,ALANINE AMINOTRANSFERASE,[1],54.5 u/L
same,ALBUMIN,[1],4.02 G/DL
same,ALKALINE PHOSPHATASE,[1],346.5 u/L
same,ASPARTATE AMINOTRANSFERASE,[1],103.17 u/L
same,BLOOD UREA NITROGEN,[1],16.5 mg/dL
same,CARBON DIOXIDE,[1],29.83 mmol/L
same,CHLORIDE,[1],99.5 MEQ/L
same,CHOLESTEROL,[1],72.5 mg/dL
same,CREATINE PHOSPHOKINASE,[1],532.5 u/L
same,CREATININE,[1],0.18 mg/dL
same,GLUCOSE,[1],168.5 mg/dL
same,LACTATE DEHYDROGENASE,[1],536.5 u/L
same,LIPASE,[1],11.17 u/L
same,PHOSPHORUS,[1],11.48 mg/dL
same,POTASSIUM,[1],5.95 MEQ/L
same,SODIUM,[1],140.5 MEQ/L
same,TOTAL BILIRUBIN,[1],0.18 mg/dL
same,TOTAL PROTEIN,[1],5.77 G/DL
same,URIC ACID,[1],1.42 mg/dL
same,ABSOLUTE BASOPHIL,[2],0 CELLS/uL
same,ABSOLUTE EOSINOPHIL,[2],22.83 CELLS/uL
same,ABSOLUTE LYMPHOCYTE,[2],12202.83 CELLS/uL
same,ABSOLUTE MONOCYTE,[2],158 CELLS/uL
same,ABSOLUTE SEGMENTED NEUTROPHIL,[2],1283 CELLS/uL
same,BASOPHIL,[2],0%
same,EOSINOPHIL,[2],0.17%
same,ERYTHROCYTE COUNT,[2],5.88 x10E6/uL
same,HEMATOCRIT,[2],36.62%
same,HEMOGLOBIN,[2],14.07 G/DL
same,LEUKOCYTE COUNT,[2],13.67 x10E3/uL
same,LYMPHOCYTE,[2],89.5%
same,MEAN CORPUSCULAR HEMOGLOBIN,[2],23.95 pg
same,MEAN CORPUSCULAR VOLUME,[2],62.28 fL
same,MONOCYTE,[2],1.17%
same,NEUTROPHIL,[2],9.17%
same,NUCLEATED RED BLOOD CELLS,[2],0.17 /100WBC
same,PLATELET COUNT,[2],1198 x10E3/uL
same,ALANINE AMINOTRANSFERASE,[2],51 u/L
same,ALBUMIN,[2],4.3 G/DL
same,ALKALINE PHOSPHATASE,[2],343 u/L
same,ASPARTATE AMINOTRANSFERASE,[2],89.83 u/L
same,BLOOD UREA NITROGEN,[2],17.67 mg/dL
same,CARBON DIOXIDE,[2],27.17 mmol/L
same,CHLORIDE,[2],98.33 MEQ/L
same,CHOLESTEROL,[2],82.5 mg/dL
same,CREATINE PHOSPHOKINASE,[2],533.33 u/L
same,CREATININE,[2],0.18 mg/dL
same,GLUCOSE,[2],152.67 mg/dL
same,LACTATE DEHYDROGENASE,[2],220.33 u/L
same,LIPASE,[2],11.5 u/L
same,PHOSPHORUS,[2],11.25 mg/dL
same,POTASSIUM,[2],6.29 MEQ/L
same,SODIUM,[2],140.53 MEQ/L
same,TOTAL BILIRUBIN,[2],0.22 mg/dL
same,TOTAL PROTEIN,[2],6.12 G/DL
same,URIC ACID,[2],1.42 mg/dL
same,ABSOLUTE BASOPHIL,[3],0 CELLS/uL
same,ABSOLUTE EOSINOPHIL,[3],92.33 CELLS/uL
same,ABSOLUTE LYMPHOCYTE,[3],12247.5 CELLS/uL
same,ABSOLUTE MONOCYTE,[3],389.67 CELLS/uL
same,ABSOLUTE SEGMENTED NEUTROPHIL,[3],1320.5 CELLS/uL
same,BASOPHIL,[3],0%
same,EOSINOPHIL,[3],0.67%
same,ERYTHROCYTE COUNT,[3],5.45 x10E6/uL
same,HEMATOCRIT,[3],34.85%
same,HEMOGLOBIN,[3],12.97 G/DL
same,LEUKOCYTE COUNT,[3],14.05 x10E3/uL
same,LYMPHOCYTE,[3],87.33%
same,MEAN CORPUSCULAR HEMOGLOBIN,[3],23.78 pg
same,MEAN CORPUSCULAR VOLUME,[3],63.93 fL
same,MONOCYTE,[3],2.67%
same,NEUTROPHIL,[3],9.33%
same,NUCLEATED RED BLOOD CELLS,[3],0 /100WBC
same,PLATELET COUNT,[3],1174 x10E3/uL
same,ALANINE AMINOTRANSFERASE,[3],48.83 u/L
same,ALBUMIN,[3],4.23 G/DL
same,ALKALINE PHOSPHATASE,[3],351.5 u/L
same,ASPARTATE AMINOTRANSFERASE,[3],90 u/L
same,BLOOD UREA NITROGEN,[3],15.33 mg/dL
same,CARBON DIOXIDE,[3],23 mmol/L
same,CHLORIDE,[3],103.5 MEQ/L
same,CHOLESTEROL,[3],70.5 mg/dL
same,CREATINE PHOSPHOKINASE,[3],651.83 u/L
same,CREATININE,[3],0.22 mg/dL
same,GLUCOSE,[3],180.67 mg/dL
same,LACTATE DEHYDROGENASE,[3],165 u/L
same,LIPASE,[3],9.33 u/L
same,PHOSPHORUS,[3],12.03 mg/dL
same,POTASSIUM,[3],6.17 MEQ/L
same,SODIUM,[3],142.62 MEQ/L
same,TOTAL BILIRUBIN,[3],0.2 mg/dL
same,TOTAL PROTEIN,[3],5.73 G/DL
same,URIC ACID,[3],1.77 mg/dL
same,ABSOLUTE BASOPHIL,[4],0 CELLS/uL
same,ABSOLUTE EOSINOPHIL,[4],0 CELLS/uL
same,ABSOLUTE LYMPHOCYTE,[4],12736.67 CELLS/uL
same,ABSOLUTE MONOCYTE,[4],253.5 CELLS/uL
same,ABSOLUTE SEGMENTED NEUTROPHIL,[4],1193.17 CELLS/uL
same,BASOPHIL,[4],0%
same,EOSINOPHIL,[4],0%
same,ERYTHROCYTE COUNT,[4],5.72 x10E6/uL
same,HEMATOCRIT,[4],36.05%
same,HEMOGLOBIN,[4],13.62 G/DL
same,LEUKOCYTE COUNT,[4],14.18 x10E3/uL
same,LYMPHOCYTE,[4],89.33%
same,MEAN CORPUSCULAR HEMOGLOBIN,[4],23.83 pg
same,MEAN CORPUSCULAR VOLUME,[4],63.05 fL
same,MONOCYTE,[4],1.83%
same,NEUTROPHIL,[4],8.83%
same,NUCLEATED RED BLOOD CELLS,[4],0 /100WBC
same,PLATELET COUNT,[4],1322.17 x10E3/uL
same,ALANINE AMINOTRANSFERASE,[4],48.83 u/L
same,ALBUMIN,[4],4.27 G/DL
same,ALKALINE PHOSPHATASE,[4],295.17 u/L
same,ASPARTATE AMINOTRANSFERASE,[4],75.83 u/L
same,BLOOD UREA NITROGEN,[4],15.5 mg/dL
same,CARBON DIOXIDE,[4],30.5 mmol/L
same,CHLORIDE,[4],102.33 MEQ/L
same,CHOLESTEROL,[4],76.17 mg/dL
same,CREATINE PHOSPHOKINASE,[4],205.5 u/L
same,CREATININE,[4],0.2 mg/dL
same,GLUCOSE,[4],149.67 mg/dL
same,LACTATE DEHYDROGENASE,[4],124.5 u/L
same,LIPASE,[4],10 u/L
same,PHOSPHORUS,[4],10.93 mg/dL
same,POTASSIUM,[4],6.59 MEQ/L
same,SODIUM,[4],143.1 MEQ/L
same,TOTAL BILIRUBIN,[4],0.2 mg/dL
same,TOTAL PROTEIN,[4],6.05 G/DL
same,URIC ACID,[4],1.45 mg/dL
